# Reference: ChEMBL document CHEMBL5346903, “Discovery of novel and bioavailable histone deacetylases and cyclin-dependent kinases dual inhibitor to impair the stemness of leukemia cells” (Eur J Med Chem, 2023)
# Legend:
# U-937 [1] = test: Induction of apoptosis in human U-937 cells assessed as late apoptotic cells at 0.2 uM incubated for 48 hrs by annexin V-FITC/PI satining based flow cytometry (reference value: 7.10 %); format: functional
# U-937 [2] = test: Induction of apoptosis in human U-937 cells assessed as viable cells at 1 uM incubated for 48 hrs by annexin V-FITC/PI satining based flow cytometry (reference value: 90.0 %); format: functional; settings: read-out: Activity
# U-937 [3] = test: Induction of apoptosis in human U-937 cells assessed as late apoptotic cells at 0.5 uM incubated for 48 hrs by annexin V-FITC/PI satining based flow cytometry (reference value: 7.10 %); format: functional
# [4] = Clearance in Sprague-Dawley rat at 5 mg/kg, iv measured upto 6 hrs by LC/MS-MS analysis; format: ADME, organism-based; settings: in vivo
# U-937 [5] = test: Induction of apoptosis in human U-937 cells assessed as viable cells at 0.5 uM incubated for 48 hrs by annexin V-FITC/PI satining based flow cytometry (reference value: 90.0 %); format: functional; settings: read-out: Activity
# U-937 [6] = test: Induction of apoptosis in human U-937 cells assessed as early apoptotic cells at 2 uM incubated for 48 hrs by annexin V-FITC/PI satining based flow cytometry (reference value: 0.945 %); format: functional
# [7] = Cmax in Sprague-Dawley rat at 5 mg/kg, iv measured upto 6 hrs by LC/MS-MS analysis; format: ADME, organism-based; design: time < 6 hrs, dose 5 mg/kg, route iv; settings: in vivo
smiles,measurement,setting,value
Nc1ccccc1NC(=O)c1ccc(NC(=O)c2n[nH]cc2NC(=O)c2c(Cl)cccc2Cl)cc1,Activity,U-937 [1],8.15%
same,viability at 1 µM,U-937 [2],48.9%
same,Activity,U-937 [3],14%
same,clearance,[4],88.5 mL/min/kg
same,viability at 0.5 µM,U-937 [5],79.8%
same,Activity,U-937 [6],2.14%
same,Cmax,[7],3640 ng/mL
